Experimental data: patent US10500188B1, “Use of a polyenylpyrrole derivative in preparation of anti-oral cancer drugs” (TZU CHI UNIVERSITY, priority 2019, dated 2019)

Key:
[1] = tested on: prostate apoptosis response-4 (Par-4); test: Expression of Par-4 in OSCC cells; assay type: cell-based; conditions: FIG. 3C
Protocol: Also refer to FIG. 3D and FIG. 3E. The results of the SC group (SCC-15 cell line without the knockdown Par-4 gene) treated with 10 nM, 50 nM, 80 nM, 100 nM, and 200 nM polyenylpyrrole derivative (F236B) for 24 hours and 48 hours respectively are shown in FIG. 3D. The results of the Par-4-KD group (SCC-15 cell line with the knockdown Par-4 gene) treated with 10 nM, 50 nM, 80 nM, 100 nM, and 200 nM polyenylpyrrole derivative (F236B) for 24 hours and 48 hours respectively are shown in FIG. 3E.

[2] = tested on: IL-17RA in OSCC cells (SCC-15); test: Western blot of IL-17RA expression; assay type: cell-based, human; conditions: SCC-15, Western blot, vs DMSO control; FIG. 7
Protocol: Western blot is used to detect expression of IL-17RA in the OSCC cells (SCC-15) treated with the polyenylpyrrole derivative (F236B). The proteins are separated by SDS-PAGE gel and then transferred to a Polyvinylidene difluoride (PVDF) membrane. Then soak in 5% BSA (bovine serum albumin) for 1 hour for blocking. After removal of BSA and addition of primary antibodies, place the membrane in 4° C. refrigerator with constant shaking for 16 hr and wash 3 times with TBST-Tween20 (TBST) (each takes 15 min). Next add secondary antibodies and shake at room temperature for 1 hour. Then wash 3 times with TBST and each step takes 15 min. Lastly use enhanced chemiluminescent (ECL) reagent (RPN2106 ECL™ Western Blotting Reagent) for imaging and UVP BioSpectrum to detect images. […] Therefore, the reduction effect of the polyenylpyrrole derivative (F236B) on the expression of IL-17RA is associated with the tumor-suppressor function of the polyenylpyrrole derivative (F236B).

[3] = tested on: patient oral cancer tissue xenograft; test: Patient-derived xenograft (PDX) model of patients with oral cancers; assay type: in vivo, NOD-SCID male mice
Excerpt: (§1) In order to learn whether in vivo test results of OSCC cells (SCC-15, TW2.6) are consistent with in vitro test results of the same, a cell-line-derived xenograft model (SCC-15 cell line) and a patient-derived xenograft (PDX) model of patients with oral cancers are used to test xenograft tumorigenicity of oral cancer cells and the results are shown in FIG. 2D-2F.
After approval of the institutional review board (IRB), oral cancer tissues of patients are collected at the Department of Otolaryngology, Hualien Tzu Chi Hospital during the period from Jul. 1, 2016 to Jun. 30, 2017. The PDX model has been established by immersing and washing the samples collected in Penicillin/Streptomycin diluted 2-fold with PBS, and using six-to-eight-week-old NOD-SCID male mice. After injection of a 0.01 mL/g body weight dose of ketamine/xylazine into a mouse, a 1.5×1.5 cm^2 skin surface at the right abdomen of the anesthetized mouse is treated with a depilatory agent to remove hair. Use tincture of iodine as a disinfectant and cut a wound of […] on the mouse skin and suture the wound after tumor tissue being applied. During recovery period, the rearing cage is set on the heating pad and turned back to the rearing rack after recovery. After the surgery, observe the mouse day by day and then get the mouse out of the cage when the tumor reaches a diameter of about 1 cm. […]

SCC-15 cells [4] = test: Transwell assay for movement of tumor cells; assay type: cell-based, human; conditions: 24 and 48 hrs, compared with the Par-4-KD group, FIG. 6
Protocol: Refer to FIG. 6, a transwell assay is used for testing movement of tumor cells. A 24-well transwell chamber with 8.0 μm polycarbonate membrane (6.5 mm) therein is used. Add 100 μL serum free media into the upper layer and 500 μL media containing 10% serum into the lower layer. Then add 5000 cells (SCC-15) into the upper layer of each well, incubate overnight and add the polyenylpyrrole derivative (F236B). Remove the upper layer after 24 hrs and 48 hrs, respectively and wash 2 times with PBS. Add methanol (500 μL per well) at 4° C. for 1 hr for fixation and wash 2 times with PBS. Next, stain with crystal violet for 10 min and wash 2 times with PBS. Lastly observe and count the number of cells moved to the lower layer.

SCC-15 cells [5] = test: Tumor sphere formation on matrigel; assay type: cell-based, human; conditions: compared with the Par-4-KD group; FIG. 4
Protocol: Refer to FIG. 4, the test results of the tumor sphere formation ability of the OSCC cells are shown. In order to culture cells (SCC-15) for tumor sphere formation, each well of a 24-well plate is coated with 150 μL growth factor reduced matrigel, then placed in 4° C. refrigerator and shaken for 15 minutes to make the growth factor reduced matrigel distribute evenly therein. Place in 37° C. incubator for 1 hour. After firm matrigel formation, each well is added with 5000 SCC-15 cells and change culture medium every day.

[6] = tested on: SCC-15 cell line without the knockdown Par-4 gene; test: Migration test, SC group; assay type: cell-based, human; conditions: 100 nM and 200 nM; 0, 3, 9 hr; FIG. 5A
Protocol: Then migration and movement of the Par-4-KD group and the SC group treated with polyenylpyrrole derivative (F236B) is tested and the results are shown in FIG. 5A-5B and FIG. 6.
The results of the Par-4-KD group (SCC-15 cell line with the knockdown Par-4 gene) treated with 100 nM and 200 nM polyenylpyrrole derivative (F236B) for 0, 3, and 9 hrs respectively are shown in FIG. 5B.

[7] = tested on: TW2.6 human oral squamous cell carcinoma (OSCC) cell line; test: MTT cell proliferation assay, OSCC cells (TW2.6); assay type: cell-based; conditions: 10, 50, 80, 100, 200 nM, 24 and 48 hr, FIG. 2C
Excerpt: The present polyenylpyrrole derivative is used to inhibit oral cancer cells. The oral cancer cell can be oral squamous cell carcinoma (OSCC) cell (SCC-15 cell line). The TW2.6 human oral squamous cell carcinoma (OSCC) cell line obtained from Asian people can also be used in cell proliferation assay.
(§2) MTT (3-(4,5-dimethylthiazol-2-yl)-2,5-diphenyltetrazolium bromide) assay is used for measuring cell proliferation. Add 3000 OSCC cells (SCC-15 and TW2.6) and 5000 immortalized cells (K2) into each well of a 96-well plate. Next day add the present polyenylpyrrole derivative (F236B) into the respective well and remove culture medium after 24 hours (hr) and 48 hr respectively. Then add MTT dissolved in culture medium (150 μL per well) except the background wells and react for 90 min. Lastly remove solution in the culture plate and add DMSO (150 μL per well) into the culture plate for dissolving the pigment. After being dissolved completely, use the ELISA machine to measure absorbance at 570 nm. The concentration of the polyenylpyrrole derivative (F236B) used is 10, 50, 80, 100, and 200 nM respectively, as results shown in FIG. 2A-2C.
Also refer to FIG. 2C, test results of OSCC cells (TW2.6) treated with 10, 50, 80, 100, and 200 nM polyenylpyrrole derivative (F236B) respectively are disclosed. […]

SCC-15 xenograft tumor = test: Cell-line-derived xenograft model (SCC-15 cell line); assay type: in vivo, NOD-SCID male mice; conditions: 1 mg/kg s.c. into neck, vs PBS control, FIG. 2D
Excerpt: as §1
As to the cell-line-derived xenograft model, six-to-eight-week-old NOD-SCID male mice are used. About 5×10^6 SCC-15 cells are subcutaneously injected into the right abdominal of the mouse. There are two experimental groups. The mouse in the first group (I) is injected with the polyenylpyrrole derivative (F236B) the day after being injected with the OSCC cells. In the second group (II), the mouse is injected with the polyenylpyrrole derivative (F236B) when the tumor grows to a size with a diameter of about […]. The polyenylpyrrole derivative (F236B) at a dose of 1 mg/kg is subcutaneously injected into the neck of the mouse. Samples are taken when the cells grow to a size with a diameter of about 1 cm (21-day).

normal oral cells (K2) = test: MTT cell proliferation assay, normal oral cells (K2); assay type: cell-based; conditions: 100, 500, 800, 1000 nM, 24 and 48 hr, FIG. 2A
Protocol: as §2, with “The concentration of the polyenylpyrrole derivative (F236B) used is 10, 50, 80, 100, and 200 nM respectively, as results shown in FIG.” left out

OSCC cells (SCC-15) = test: MTT cell proliferation assay, OSCC cells (SCC-15); assay type: cell-based, human
Protocol: as §2
Also refer to FIG. 2C, test results of OSCC cells (TW2.6) treated with 10, 50, 80, 100, and 200 nM polyenylpyrrole derivative (F236B) respectively are disclosed. […] Moreover, the present polyenylpyrrole derivative (F236B) not only has effects on the OSCC cells of Western people (SCC-15) but also affects the OSCC cells of Asians (TW2.6). Thus the polyenylpyrrole derivative (F236B) can be widely used in the OSCC cells. In the previous tests for assessment of the effects of natural products on cancer cells, the unit of the concentration unit used is μM. […]

weight of the mouse ([3]; treated with F236B vs PBS, triplicate groups, FIG. 2F): not affected
SMILES: CCOc1cc(/C=C/C=C/C=C/C=C/c2[nH]ccc2Cl)oc(=O)c1 [F236B]
expression of Par-4 in the OSCC cells [1]: enhances expression of Par-4
expression of IL-17RA [2]: obviously inhibited
tumor volume, PDX ([3]; P3 mice, 1 mg/kg s.c. into neck, vs PBS control, FIG. 2E): dramatically decreased
movement of the OSCC cells in the SC group (SCC-15 cells [4]): significantly reduced
tumor sphere formation ability, SC group (SCC-15 cells [5]): obviously reduced
migration ability, SC group [6]: clearly reduced
proliferation of OSCC cells (TW2.6) [7]: inhibits proliferation of the OSCC cells (TW2.6)
tumor volume, first group (I) (SCC-15 xenograft tumor; started the day after injection of OSCC cells, 21-day): significantly reduced
tumor volume, second group (II) (SCC-15 xenograft tumor; started when tumor diameter about 30 mm): significantly reduced
proliferation of normal oral cells (K2) (normal oral cells (K2)): doesn't affect the proliferation of normal oral cells
proliferation of OSCC cells (SCC-15) (OSCC cells (SCC-15); MTT, 10, 50, 80, 100, 200 nM, 24 and 48 hr, FIG. 2B): inhibits proliferation of the OSCC cells (SCC-15)
proliferation of OSCC cells in the SC group (OSCC cells (SCC-15); SCC-15 without Par-4 knockdown, 10-200 nM, 24 and 48 hours, FIG. 3D): apparently reduced
